# Experimental data as given in patent US9387235B2, “Cosmetic preparations containing PTH fragments” (BASF Beauty Care Solutions France S.A.S., priority 2004, dated 2016).
# No end group written: not given here.
# Tests used:
# [1] = tested on: collagen type I; assay: Collagen type I gene expression in human dermal fibroblasts (quantitative RT-PCR); type: cell-based; conditions: for Ratio versus calibrator (collagen type I mRNA): incubation for 1 day, EF1α reference gene; for rate of collagen type I gene expression (in words): human dermal fibroblasts
# Experimental: Human dermal fibroblasts are seeded and incubated for 3 to 5 days at 37° C., CO2=5%.
# After exchange of cell culture medium to a defined cell culture medium with the products to be tested, incubation for 1 day at 37° C., CO2=5%. The recovering of cells and numeration before recovering of RNA from human dermal fibroblasts cultured in vitro.
# The level of mRNA encoding the collagen type I was evaluated by quantitative RT-PCR or real time RT-PCR.
# The results are firstly expressed by the crossing point (CP) which refers to the number of cycle required for the rising of a distinct fluorescence. Then the results of each sample, are calculated as a ratio referring to a reference gene or “house keeping” gene: CP of target/CP of reference gene. EF1α gene was used as internal control gene to normalise the mRNA evaluation.
# [2] = tested on: human dermis fibroblasts; assay: Effects on the growth of human dermis fibroblasts (DNA cell content, Hoechst 33258); type: cell-based; conditions: for DNA after culture for 3 days / DNA after culture for 6 days: % relative to control medium, mean of four tests in triplicate
# Experimental: The object of this test is to examine the regenerating and revitalising activities of cultures of human dermis fibroblasts in vitro.
# Human dermis fibroblasts were incubated in a standard medium for cell cultures with foetal calf serum (FCS). After culture for one day at 37° C. and with a 5% content of CO2, the medium was changed for a standard medium with different concentrations of peptides. After further incubation for three days and six days, the number of living cells was established by establishing the DNA cell content with a fluorescent probe (Hoechst 33258).
# [3] = tested on: human dermal fibroblast; assay: Human dermal fibroblast mRNA profile on cDNA-array (Panhuman 10K); type: cell-based; conditions: for Expression evolution / Log2 (treated/non-treated): 5 μg/ml
# Experimental: The aim of this study is to detect the variation of mRNA profile of human dermal fibroblast induced by treatment with the PTH(29-32) peptide fragment.
# Normal human dermal fibroblast were cultured in standard medium supplemented with foetal calf serum (FCS) during three days in a 5% CO2 atmosphere. After cultures, the medium was changed by a standard medium either supplemented with PTH(29-32) peptide fragment at 5 μg/ml or not. After an incubation of either 3 or 24 hours, cultures were arrested and total RNAs of the different cultures were extracted. The cDNAs obtained from peptide-treated RNAs or from non-treated RNAs were labelled with cyanine-3 and cyanine-5, respectively.
# Mixture of treated and non-treated cDNAs were hybridised on commercially Panhuman® 10K (MW Biotech, Roissy Charles-de-Gaulle, France) cDNA-array allowing to study near to 10,000 gene expressions. After highly stringent washing, cyanine-3 and cyanine-5 fluorescences were measured, allowing to evaluate a […] expression ratio of each analyzed gene.
# Results are expressed as Log2 of the ratio between the measured expression of genes in the treated vs non-treated conditions.
# [4] = tested on: protein kinase C (PKC); conditions: osteosarcoma cells of ROS 17/2 rats; Jouishomme et al. 1992, 1994; cited from earlier work
# [5] = tested on: lumican; assay: Stimulation of the synthesis of lumican on aged human dermal fibroblasts (immunocytochemistry, image analysis); type: cell-based; conditions: aged human dermal fibroblasts in culture
# Experimental: Human dermal fibroblasts cell suspension were prepared by standard digestion by collagenase of human adult dermis specimens collected from plastic surgery.
# After repeated passages (Hayflick model) to mimic ageing in vitro, human dermal fibroblasts were seeded in DMEM for 2 days at 37° C., CO2=5%. Then, acetyl-QDVH (1 and 3 μg/ml) is introduced and after 6 days of incubation at 37° C., CO2=5%, the expression of the lumican synthesis was evaluated on glass slides by immunocytochemistry.
# Quantification of the staining was carried out by image analysis.
# The results are expressed as the sum of the product of number of pixels by green detected values (arbitrary unit).
# [6] = col1a1, alpha 1 type i collagen, 3 h incubation
# [7] = cspg2, chondroitin sulfate 2 (versican), 3 h incubation
# [8] = cspg2, chondroitin sulfate 2 (versican), 24 h incubation
# [9] = ctgf, connective tissue growth factor, 3 h incubation
# [10] = ctgf, connective tissue growth factor, 24 h incubation
# [11] = fgf2, fibroblast growth factor 2, 3 h incubation
# [12] = gpc1, glypican 1 precursor, 3 h incubation
# [13] = gpc1, glypican 1 precursor, 24 h incubation
# [14] = itga2b, integrin alpha 2b, 3 h incubation
# [15] = itgb4, integrin, beta 4, 24 h incubation
# [16] = itgb5, integrin, beta 5, 3 h incubation
# [17] = itgb5, integrin, beta 5, 24 h incubation
# [18] = nid, nidogen (enactin), 3 h incubation
# [19] = nid, nidogen (enactin), 24 h incubation
# [20] = tgfbr3, transforming growth factor, beta receptor III (betaglycan), 3 h incubation
# [21] = tgfbr3, transforming growth factor, beta receptor III (betaglycan), 24 h incubation
# [22] = thbs1, thrombospondin 1, 24 h incubation
# [23] = timp1, tissue inhibitor of metalloproteinase 1, 3 h incubation
substance,measurement,setting,value
TGFβ [reference compound],Ratio versus calibrator (collagen type I mRNA),[1]; 10 ng/ml,2.12
same,rate of collagen type I gene expression (in words),[1],strongly enhanced
Gln-Asp-Val-His (QDVH; Fragment of a parathyroid hormone),growth of human dermis fibroblasts (in words),[2]; fibroblasts cultivated from biopsies of healthy adult subjects,stimulates the growth of human dermis fibroblasts
same,DNA after culture for 3 days,[2]; peptide 0.001 %,162%
same,DNA after culture for 6 days,[2]; peptide 0.001 %,119%
same,DNA after culture for 3 days,[2]; peptide 0.003 %,155%
same,DNA after culture for 6 days,[2]; peptide 0.003 %,115%
same,persistence of growth-stimulating activity (in words),[2]; without any change in the cell culture medium,still detectable after 6 days
same,Expression evolution,"[3]; bgn, biglycan, 3 h incubation",increase
same,Log2 (treated/non-treated),"[3]; bgn, biglycan, 3 h incubation",2.16
same,Expression evolution,"[3]; bgn, biglycan, 24 h incubation",increase
same,Log2 (treated/non-treated),"[3]; bgn, biglycan, 24 h incubation",0.66
same,Expression evolution,[3]; [6],increase
same,Log2 (treated/non-treated),[3]; [6],0.93
same,Expression evolution,[3]; [7],increase
same,Log2 (treated/non-treated),[3]; [7],1.32
same,Expression evolution,[3]; [8],increase
same,Log2 (treated/non-treated),[3]; [8],1.20
same,Expression evolution,[3]; [9],increase
same,Log2 (treated/non-treated),[3]; [9],0.77
same,Expression evolution,[3]; [10],increase
same,Log2 (treated/non-treated),[3]; [10],0.74
same,Expression evolution,[3]; [11],increase
same,Log2 (treated/non-treated),[3]; [11],0.86
same,Expression evolution,[3]; [12],no variation
same,Log2 (treated/non-treated),[3]; [12],−0.17
same,Expression evolution,[3]; [13],increase
same,Log2 (treated/non-treated),[3]; [13],0.73
same,expression of fibroblast genes (in words),"[3]; growth factors, extra-cellular matrix components, DEJ components",stimulates the expression of some genes
same,Expression evolution,[3]; [14],increase
same,Log2 (treated/non-treated),[3]; [14],0.50
same,Log2 (treated/non-treated),"[3]; itga2b, integrin alpha 2b, 24 h incubation",0.15
same,Expression evolution,[3]; [15],increase
same,Log2 (treated/non-treated),[3]; [15],1.15
same,Expression evolution,[3]; [16],no variation
same,Log2 (treated/non-treated),[3]; [16],0.05
same,Expression evolution,[3]; [17],increase
same,Log2 (treated/non-treated),[3]; [17],0.68
same,Expression evolution,[3]; [18],increase
same,Log2 (treated/non-treated),[3]; [18],1.76
same,Expression evolution,[3]; [19],increase
same,Log2 (treated/non-treated),[3]; [19],0.58
same,Expression evolution,[3]; [20],increase
same,Log2 (treated/non-treated),[3]; [20],2.00
same,Expression evolution,[3]; [21],increase
same,Log2 (treated/non-treated),[3]; [21],1.54
same,Expression evolution,[3]; [22],increase
same,Log2 (treated/non-treated),[3]; [22],1.52
same,Expression evolution,[3]; [23],increase
same,Log2 (treated/non-treated),[3]; [23],0.15
same,Log2 (treated/non-treated),"[3]; timp1, tissue inhibitor of metalloproteinase 1, 24 h incubation",−0.25
same,activation of protein kinase C (in words),[4],minimum domain of PTH in a position to function fully in the activation of PKC
"acetyl-Gln-Asp-Val-His (Ac-QDVH) [Acetyl-QDVH, acetylated PTH (29-32) peptide fragment]",lumican expression (in words),[5]; listed as acetyl-Gln-Asp-Val-His,increase of lumican expression
same,lumican expression (in words),[5]; listed as acetyl-QDVH,significantly stimulated the expression of lumican with a dose-dependent effect
same,Ratio versus calibrator (collagen type I mRNA),[1]; 3 μg/ml,1.05
same,Ratio versus calibrator (collagen type I mRNA),[1]; 10 μg/ml,1.18
same,rate of collagen type I gene expression (in words),[1],significantly enhanced
Leu-Gln-Asp-Val-His-Asn-Phe (LQDVHNF; Fragment of a parathyroid hormone) [PTH region (28 to 34)],activation of protein kinase C (in words),[4],stimulator of the protein kinase C (PKC)
IL-4: IL4 (positive control) obtained from SIGMA [reference compound],lumican expression (in words),[5],increase of lumican expression
